PMC5218480 (PLoS ONE, 2017)

Test system: MV-4-11 cells
Experiment: Gene expression microarray analysis (Affymetrix PrimeView) and GSEA
Type: cell-based, human
Parameters: RFU PODN (11730768_x_at) / Fold change /veh PODN (11730768_x_at) / RFU LINC00158 (11744669_a_at) / Fold change /veh LINC00158 (11744669_a_at) / RFU DUSP10 (11751237_a_at) / Fold change /veh DUSP10 (11751237_a_at) / RFU ID3 (11757404_x_at) / Fold change /veh ID3 (11757404_x_at) / RFU PLEKHG5 (11737974_s_at) / Fold change /veh PLEKHG5 (11737974_s_at) / RFU LRRC4B (11730491_at) / Fold change /veh LRRC4B (11730491_at) / RFU GIMAP4 (11747438_a_at) / Fold change /veh GIMAP4 (11747438_a_at) / RFU KRT8 (11758183_x_at) / Fold change /veh KRT8 (11758183_x_at) / RFU CNN1 (11734310_a_at) / Fold change /veh CNN1 (11734310_a_at) / RFU VPS37D (11726825_at) / Fold change /veh VPS37D (11726825_at) / RFU C10orf10 (11716522_x_at) / Fold change /veh C10orf10 (11716522_x_at) / RFU KIR2DL2 /// KIR2DL4 /// KIR2DL5A /// KIR2DL5B /// KIR2DS1 /// KIR2DS2 /// KIR2DS3 /// KIR2DS4 /// KIR3DL3 /// KIR3DL3 /// KIR3DS1 (11738374_at) / Fold change /veh KIR2DL2 /// KIR2DL4 /// KIR2DL5A /// KIR2DL5B /// KIR2DS1 /// KIR2DS2 /// KIR2DS3 /// KIR2DS4 /// KIR3DL3 /// KIR3DL3 /// KIR3DS1 (11738374_at) / RFU C1QL1 (11718748_at) / Fold change /veh C1QL1 (11718748_at) / RFU TMPRSS4 (11747572_a_at) / Fold change /veh TMPRSS4 (11747572_a_at) / RFU HAMP (11756126_x_at) / Fold change /veh HAMP (11756126_x_at) / RFU RNFT2 (11725882_a_at) / Fold change /veh RNFT2 (11725882_a_at) / RFU NR4A2 (11747474_a_at) / Fold change /veh NR4A2 (11747474_a_at) / RFU ABCC12 (11746883_a_at) / Fold change /veh ABCC12 (11746883_a_at) / RFU TMEM136 (11760407_x_at) / Fold change /veh TMEM136 (11760407_x_at) / RFU CLDN22 /// WWC2 (11732394_at) / Fold change /veh CLDN22 /// WWC2 (11732394_at) / RFU HLA-DPB1 (11760878_x_at) / Fold change /veh HLA-DPB1 (11760878_x_at) / RFU SPINT1 (11716480_a_at) / Fold change /veh SPINT1 (11716480_a_at) / RFU GAP43 (11754022_s_at) / Fold change /veh GAP43 (11754022_s_at) / RFU A4GNT (11735810_at) / Fold change /veh A4GNT (11735810_at) / RFU PRB3 (11715151_x_at) / Fold change /veh PRB3 (11715151_x_at) / RFU TUBB4B (11761932_at) / Fold change /veh TUBB4B (11761932_at) / RFU CAPN14 (11732068_a_at) / Fold change /veh CAPN14 (11732068_a_at) / RFU TMCC2 (11721928_a_at) / Fold change /veh TMCC2 (11721928_a_at) / RFU IRGQ (11745062_a_at) / Fold change /veh IRGQ (11745062_a_at) / RFU FAM174B (11720279_a_at) / Fold change /veh FAM174B (11720279_a_at) / RFU TMPRSS4 (11748680_a_at) / Fold change /veh TMPRSS4 (11748680_a_at) / RFU FAM212B (11763350_a_at) / Fold change /veh FAM212B (11763350_a_at) / RFU PLEKHG5 (11743358_a_at) / Fold change /veh PLEKHG5 (11743358_a_at) / RFU ZSCAN30 (11745921_a_at) / Fold change /veh ZSCAN30 (11745921_a_at) / RFU CMKLR1 (11741424_a_at) / Fold change /veh CMKLR1 (11741424_a_at) / RFU LOC101060620 /// MAPK8IP1 (11723275_at) / Fold change /veh LOC101060620 /// MAPK8IP1 (11723275_at) / RFU SPTSSB (11747773_x_at) / Fold change /veh SPTSSB (11747773_x_at) / RFU PRSS12 (11739890_at) / Fold change /veh PRSS12 (11739890_at) / RFU BIN1 (11741810_x_at) / Fold change /veh BIN1 (11741810_x_at) / RFU WNT11 (11732464_a_at) / Fold change /veh WNT11 (11732464_a_at) / RFU C10orf10 (11716521_a_at) / Fold change /veh C10orf10 (11716521_a_at) / RFU C5orf56 (11738089_at) / Fold change /veh C5orf56 (11738089_at) / RFU CYB561 (11721691_x_at) / Fold change /veh CYB561 (11721691_x_at) / RFU ANKRD19P (11752326_a_at) / Fold change /veh ANKRD19P (11752326_a_at) / RFU OR2T12 /// OR2T33 /// OR2T8 (11738714_s_at) / Fold change /veh OR2T12 /// OR2T33 /// OR2T8 (11738714_s_at) / RFU VCAN (11748164_a_at) / Fold change /veh VCAN (11748164_a_at) / RFU JSRP1 (11732532_at) / Fold change /veh JSRP1 (11732532_at) / RFU KRTAP10-11 (11738290_x_at) / Fold change /veh KRTAP10-11 (11738290_x_at) / RFU MYO3A (11730013_a_at) / Fold change /veh MYO3A (11730013_a_at) / RFU EBF3 (11725865_a_at) / Fold change /veh EBF3 (11725865_a_at) / RFU CAMK2N1 (11719241_x_at) / Fold change /veh CAMK2N1 (11719241_x_at) / RFU C5orf56 (11738088_a_at) / Fold change /veh C5orf56 (11738088_a_at) / RFU OLFML3 (11715873_a_at) / Fold change /veh OLFML3 (11715873_a_at) / RFU LOC100653217 /// NTM (11731650_a_at) / Fold change /veh LOC100653217 /// NTM (11731650_a_at) / RFU MAPK11 (11762145_a_at) / Fold change /veh MAPK11 (11762145_a_at) / RFU FIZ1 (11724087_x_at) / Fold change /veh FIZ1 (11724087_x_at) / RFU OASL (11726364_x_at) / Fold change /veh OASL (11726364_x_at) / RFU SOX15 (11748057_x_at) / Fold change /veh SOX15 (11748057_x_at) / RFU CD79A (11719716_a_at) / Fold change /veh CD79A (11719716_a_at) / RFU HIST1H1D (11736915_at) / Fold change /veh HIST1H1D (11736915_at) / RFU CASKIN2 (11723855_a_at) / Fold change /veh CASKIN2 (11723855_a_at) / RFU LOC730098 (11760151_x_at) / Fold change /veh LOC730098 (11760151_x_at) / RFU OR4N2 (11742367_at) / Fold change /veh OR4N2 (11742367_at) / RFU PRRT2 (11749266_a_at) / Fold change /veh PRRT2 (11749266_a_at) / RFU SNX32 (11753110_a_at) / Fold change /veh SNX32 (11753110_a_at) / RFU CDHR5 (11726645_a_at) / Fold change /veh CDHR5 (11726645_a_at) / RFU RCAN1 (11760418_a_at) / Fold change /veh RCAN1 (11760418_a_at) / RFU FAM167A (11723789_a_at) / Fold change /veh FAM167A (11723789_a_at) / RFU FAM26E (11764081_at) / Fold change /veh FAM26E (11764081_at) / RFU ISYNA1 (11749810_s_at) / Fold change /veh ISYNA1 (11749810_s_at) / RFU ACY1 (11761880_at) / Fold change /veh ACY1 (11761880_at) / RFU 11764098_at / Fold change /veh 11764098_at / RFU SAMD14 (11745864_x_at) / Fold change /veh SAMD14 (11745864_x_at) / RFU NPB (11741838_a_at) / Fold change /veh NPB (11741838_a_at) / RFU TMPRSS6 (11731388_a_at) / Fold change /veh TMPRSS6 (11731388_a_at) / RFU KRTAP10-2 (11738614_at) / Fold change /veh KRTAP10-2 (11738614_at) / RFU ARHGAP8 /// PRR5-ARHGAP8 (11727945_x_at) / Fold change /veh ARHGAP8 /// PRR5-ARHGAP8 (11727945_x_at) / RFU KRTAP5-7 /// NADSYN1 (11734609_at) / Fold change /veh KRTAP5-7 /// NADSYN1 (11734609_at) / RFU RASL12 (11751679_a_at) / Fold change /veh RASL12 (11751679_a_at) / RFU CDKN2B (11736163_a_at) / Fold change /veh CDKN2B (11736163_a_at) / RFU PRF1 (11729649_at) / Fold change /veh PRF1 (11729649_at) / RFU, ZNF638 /// ZNF638-IT1 / Fold change vs veh, ZNF638 /// ZNF638-IT1 / RFU, PANK3 / Fold change vs veh, PANK3 / RFU, SH3YL1 / Fold change vs veh, SH3YL1 / RFU, ZEB2 / Fold change vs veh, ZEB2 / RFU, NRIP1 / Fold change vs veh, NRIP1 / RFU, PTTG1IP / Fold change vs veh, PTTG1IP / RFU, CAPN2 / Fold change vs veh, CAPN2 / RFU, MED14 / Fold change vs veh, MED14 / RFU, SNORA58 / Fold change vs veh, SNORA58 / RFU, C1orf63 / Fold change vs veh, C1orf63 / RFU, LRRFIP1 / Fold change vs veh, LRRFIP1 / RFU, NDUFAF7 / Fold change vs veh, NDUFAF7 / RFU, SLC12A2 / Fold change vs veh, SLC12A2 / RFU, IBTK / Fold change vs veh, IBTK / RFU, ESF1 / Fold change vs veh, ESF1 / Fold change vs veh, TMEM50B / RFU, TAOK1 / Fold change vs veh, TAOK1 / RFU, ACBD3 / Fold change vs veh, ACBD3 / RFU, TMA16 / Fold change vs veh, TMA16 / RFU, RWDD3 / Fold change vs veh, RWDD3 / RFU, BCAT1 / Fold change vs veh, BCAT1 / RFU, EDEM3 / Fold change vs veh, EDEM3 / RFU, TMEM33 / Fold change vs veh, TMEM33 / RFU, WDR75 / Fold change vs veh, WDR75 / RFU, AHCTF1 / Fold change vs veh, AHCTF1 / RFU, TFRC / Fold change vs veh, TFRC / RFU, ZDHHC17 / Fold change vs veh, ZDHHC17 / RFU, NOM1 / Fold change vs veh, NOM1 / RFU, ARL8B / Fold change vs veh, ARL8B / RFU, ZBTB11 / Fold change vs veh, ZBTB11 / RFU, TAMM41 / Fold change vs veh, TAMM41 / RFU, KIAA1704 /// LOC100996395 / Fold change vs veh, KIAA1704 /// LOC100996395 / RFU, ING1 / Fold change vs veh, ING1 / RFU, TRMT61B / Fold change vs veh, TRMT61B / RFU, FUBP3 / Fold change vs veh, FUBP3 / RFU, TP53 / Fold change vs veh, TP53 / RFU, TNKS2 / Fold change vs veh, TNKS2 / RFU, ZFP14 / Fold change vs veh, ZFP14 / RFU, ACTR2 / Fold change vs veh, ACTR2 / RFU, PPP3R1 / Fold change vs veh, PPP3R1 / RFU, PIK3R1 / Fold change vs veh, PIK3R1 / RFU, HNRNPA1 / Fold change vs veh, HNRNPA1 / RFU, RNF170 / Fold change vs veh, RNF170 / RFU, ZNF28 / Fold change vs veh, ZNF28 / RFU, RNGTT / Fold change vs veh, RNGTT / RFU, OGT / Fold change vs veh, OGT / RFU, BRD1 / Fold change vs veh, BRD1 / RFU, MARS / Fold change vs veh, MARS / RFU, ZNF655 / Fold change vs veh, ZNF655 / RFU, FAHD1 / Fold change vs veh, FAHD1 / RFU, BDP1 / Fold change vs veh, BDP1 / RFU, LRRCC1 / Fold change vs veh, LRRCC1 / RFU, ARID1A / Fold change vs veh, ARID1A / RFU, ZNF146 / Fold change vs veh, ZNF146 / RFU, ZNF330 / Fold change vs veh, ZNF330 / RFU, GPN3 / Fold change vs veh, GPN3 / RFU, C9orf123 / Fold change vs veh, C9orf123 / RFU, N4BP2L2 / Fold change vs veh, N4BP2L2 / RFU, ARFIP1 / Fold change vs veh, ARFIP1 / RFU, FAM179B / Fold change vs veh, FAM179B / RFU, BCL10 / Fold change vs veh, BCL10 / RFU, UHRF1BP1L / Fold change vs veh, UHRF1BP1L / RFU, BET1 / Fold change vs veh, BET1 / RFU, CNOT2 / Fold change vs veh, CNOT2 / RFU, ZNF268 / Fold change vs veh, ZNF268 / Fold change vs veh, ZNF507 / RFU, DGCR2 / Fold change vs veh, DGCR2 / RFU, WDSUB1 / Fold change vs veh, WDSUB1 / Fold change vs veh, HSP90B1 /// MIR3652 / RFU, ADSS / Fold change vs veh, ADSS / RFU, GK / Fold change vs veh, GK / RFU, ZNF148 / Fold change vs veh, ZNF148 / RFU, TAF9 / Fold change vs veh, TAF9 / RFU, SLC1A5 / Fold change vs veh, SLC1A5 / RFU, SLMO2 / Fold change vs veh, SLMO2 / RFU, ABCC4 / Fold change vs veh, ABCC4 / RFU, LOC101060439 /// RAP1B / Fold change vs veh, LOC101060439 /// RAP1B / RFU, RFX7 / Fold change vs veh, RFX7 / RFU, GTPBP10 / Fold change vs veh, GTPBP10 / RFU, CNEP1R1 / Fold change vs veh, CNEP1R1 / RFU, BIVM-ERCC5 /// ERCC5 / Fold change vs veh, BIVM-ERCC5 /// ERCC5 / RFU, ILF3 / Fold change vs veh, ILF3 / RFU 11762660_at / Fold change /veh 11762660_at / RFU VCAN (11757783_s_at) / Fold change /veh VCAN (11757783_s_at) / RFU DDX43 (11728927_at) / Fold change /veh DDX43 (11728927_at) / RFU KRT8 (11758188_x_at) / Fold change /veh KRT8 (11758188_x_at) / RFU NKD1 (11759106_at) / Fold change /veh NKD1 (11759106_at) / RFU SRD5A1 (11742802_a_at) / Fold change /veh SRD5A1 (11742802_a_at) / RFU TPSAB1 /// TPSB2 (11721975_s_at) / Fold change /veh TPSAB1 /// TPSB2 (11721975_s_at) / RFU GSTM3 (11746129_a_at) / Fold change /veh GSTM3 (11746129_a_at) / RFU IL23R (11737362_x_at) / Fold change /veh IL23R (11737362_x_at) / RFU TMEM51 (11727254_a_at) / Fold change /veh TMEM51 (11727254_a_at) / RFU PIWIL2 (11732686_x_at) / Fold change /veh PIWIL2 (11732686_x_at) / RFU ORM1 (11744905_x_at) / Fold change /veh ORM1 (11744905_x_at) / RFU CCDC152 (11743942_at) / Fold change /veh CCDC152 (11743942_at) / RFU ECM1 (11717891_a_at) / Fold change /veh ECM1 (11717891_a_at) / RFU IL23R (11748794_a_at) / Fold change /veh IL23R (11748794_a_at) / RFU TNFAIP8L3 (11732012_x_at) / Fold change /veh TNFAIP8L3 (11732012_x_at) / RFU MBOAT4 (11741988_at) / Fold change /veh MBOAT4 (11741988_at) / RFU 11764193_at / Fold change /veh 11764193_at / RFU TMEM53 (11763286_at) / Fold change /veh TMEM53 (11763286_at) / RFU MAGEB2 (11727129_at) / Fold change /veh MAGEB2 (11727129_at) / RFU TMEM200A (11744735_a_at) / Fold change /veh TMEM200A (11744735_a_at) / RFU CCDC152 (11751479_a_at) / Fold change /veh CCDC152 (11751479_a_at) / RFU FAM211A (11726209_a_at) / Fold change /veh FAM211A (11726209_a_at) / RFU RGS16 (11746705_a_at) / Fold change /veh RGS16 (11746705_a_at) / RFU VCAN (11755009_s_at) / Fold change /veh VCAN (11755009_s_at) / RFU RHOB (11743442_s_at) / Fold change /veh RHOB (11743442_s_at) / RFU RGS16 (11720943_a_at) / Fold change /veh RGS16 (11720943_a_at) / RFU RGS16 (11720944_at) / Fold change /veh RGS16 (11720944_at) / RFU, VPS4B / Fold change vs veh, VPS4B / RFU, CREB1 / Fold change vs veh, CREB1 / RFU, DNAJC13 / Fold change vs veh, DNAJC13 / RFU, GNAQ / Fold change vs veh, GNAQ / RFU, CDK5R1 / Fold change vs veh, CDK5R1 / RFU, ZRANB3 / Fold change vs veh, ZRANB3 / RFU, CUL4A / Fold change vs veh, CUL4A / RFU, CCNY / Fold change vs veh, CCNY / RFU, UFL1 / Fold change vs veh, UFL1 / RFU, COG3 / Fold change vs veh, COG3 / RFU, DIAPH2 / Fold change vs veh, DIAPH2 / RFU, SKA2 / Fold change vs veh, SKA2 / RFU, AFF3 / Fold change vs veh, AFF3 / RFU, LMF1 / Fold change vs veh, LMF1 / RFU, IPO11 / Fold change vs veh, IPO11 / RFU, DFFB / Fold change vs veh, DFFB / RFU, FOXP1 / Fold change vs veh, FOXP1 / RFU, CARD8 / Fold change vs veh, CARD8 / RFU, STRN3 / Fold change vs veh, STRN3 / RFU, ADK / Fold change vs veh, ADK / RFU, RASSF2 / Fold change vs veh, RASSF2 / RFU, WIPF1 / Fold change vs veh, WIPF1 / RFU, LARP1B / Fold change vs veh, LARP1B / RFU, RASA1 / Fold change vs veh, RASA1 / RFU, RB1 / Fold change vs veh, RB1 / RFU, PPFIA1 / Fold change vs veh, PPFIA1 / RFU, MAT2A / Fold change vs veh, MAT2A / RFU, CCT5 / Fold change vs veh, CCT5 / RFU, WDR92 / Fold change vs veh, WDR92 / RFU, CUX1 / Fold change vs veh, CUX1 / RFU, TTC7A / Fold change vs veh, TTC7A / RFU, TMEM135 / Fold change vs veh, TMEM135 / RFU, DEPTOR / Fold change vs veh, DEPTOR / RFU, CPM / Fold change vs veh, CPM / RFU, DNAJB6 / Fold change vs veh, DNAJB6 / RFU, CACNA2D3 / Fold change vs veh, CACNA2D3 / RFU, DTX4 / Fold change vs veh, DTX4 / RFU, TFCP2 / Fold change vs veh, TFCP2 / RFU, GMCL1 /// GMCL1P1 / Fold change vs veh, GMCL1 /// GMCL1P1 / RFU, AEBP2 / Fold change vs veh, AEBP2 / RFU, SNHG1 /// SNORD22 /// SNORD25 /// SNORD26 /// SNORD27 /// SNORD28 /// SNORD29 /// SNORD31 / Fold change vs veh, SNHG1 /// SNORD22 /// SNORD25 /// SNORD26 /// SNORD27 /// SNORD28 /// SNORD29 /// SNORD31 / Fold change (Aza/veh), C12orf56 (ProbeSet 11735607_a_at) / Fold change (ACY-1035/veh), C12orf56 (ProbeSet 11735607_a_at) / Fold change (Aza/veh), FGFR1OP (ProbeSet 11751329_s_at) / Fold change (ACY-1035/veh), FGFR1OP (ProbeSet 11751329_s_at) / Fold change (Aza/veh), VPS36 (ProbeSet 11739960_a_at) / Fold change (ACY-1035/veh), VPS36 (ProbeSet 11739960_a_at) / RFU SYPL1 (11715823_x_at) / Fold change /veh SYPL1 (11715823_x_at) / RFU IGFBP7 (11715501_s_at) / Fold change /veh IGFBP7 (11715501_s_at) / RFU REEP3 (11722064_at) / Fold change /veh REEP3 (11722064_at) / RFU IGLL1 (11728026_x_at) / Fold change /veh IGLL1 (11728026_x_at): dose or concentration left out as unconfirmed
Details: ProbeSet 11753055_s_at; LIST B

**Q.** How did the “RFU, LOC101060439 /// RAP1B” value turn out when Nc1ncn([C@@H]2O[C@H](CO)[C@@H](O)[C@H]2O)c(=O)n1 [azacitidine] was run?
**A.** The value was 558.59 RFU.
